Assay results taken from PMC5729604, “Dual inhibitors of hepatitis C virus and hepatocellular carcinoma: design, synthesis and docking studies” (Future Science OA, 2017).
“Also recorded” adds a separate entry of the source.

Tested on: HepG2 cells infected with hepatitis C virus
Assay: In vitro anti-HCV screening, qualitative RT-PCR of viral RNA
Type: cell-based, HCV genotype-4
Conditions: for Result (anti-HCV screening): at the used dose (below LD0 on HepG2 and PBMCs), 72 h, Positive = disappearance of viral RNA-amplified product (174 bp)
Source text: The safe compounds on RBCs (5a-g, 5i-l, 5p-r, 5v-w, 6b-g) were screened for their in vitro anti-HCV activity using the HCC HepG2 cell line infected with the HCV. Monitoring of the HCV viremia pre- and post-antiviral therapy through the detection of viral RNA using qualitative reverse transcription-PCR (RT-PCR) was adopted in the present investigation. This technique was reported to be the most frequently used, reliable and sensitive technique. Inhibition of viral replication was detected by amplification of viral RNA segments by the RT-PCR technique both in the cultivated infected cells alone (as a positive control) and at the specified dose for each test compound at optimal temperature. The test compound was considered to be active when it can inhibit the viral replication inside the HCV-infected HepG2 cells, as evidenced by the disappearance of the viral RNA-amplified products detected by the RT-PCR (compared with positive control).
The used concentration of each compound was chosen to be lower than the LD0 on HepG2 cells. Therefore, 100% viability of HepG2 cells was maintained, to make sure that any inhibitory effect was due to anti-HCV activity rather than cytotoxic activity on HepG2 cells. Moreover, the used concentrations were also chosen to be lower than the LD0 on PBMCs. Consequently, these doses could be used for inhibition of HCV in normal cells infected with the virus.
HepG2 cells were washed twice in RPMI-1640 medium supplemented with 200 μM L-glutamine and […] HEPES buffer. The cells were suspended at 12 × 10^4 cells/ml in RPMI culture medium (RPMI supplemented medium and 10% FBS). The appropriate number of cells to be used was chosen to be 12 × 10^3 cells/well (100 μl of the prepared suspension), and the cells were left to adhere on the polystyrene […] plates in an incubator at 37°C, 5% CO2 and 95% humidity for 24 h. The cells were washed once using RPMI supplemented medium, then infected with 2% HCV-infected serum (the used serum was a pole of ten patients infected with HCV genotype-4 with viral loads: 3.2–9 million IU/ml, G4 HCV RNA) in RPMI culture medium containing 8% FBS. The used dose of each compound was chosen so as to maintain 100% viability of the HepG2 cell line (the dose was lower than the LD0 of each compound on HepG2 cells as calculated from the in vitro anticancer screening). It was reported that, cultured HepG2 cells lost their biotransformation activity due to decrease in cytochrome (CYP) transcription. This waived its effect on the compounds stability during the test. Negative control is HepG2 cells with culture medium without addition of HCV infected serum or addition of tested compounds. Positive control is HepG2 cells with culture medium and infected HCV serum but without addition of tested compounds. After addition of the compounds, the plates were incubated at 37°C, 5% CO2 and 95% humidity for 72 h, followed by RNA extraction. The RNA strand was detected by RT-PCR using HCV-specific primers to the […] region of the virus.
RNA was extracted from HepG2 cells using the method described by El-Awady et al.. Culture cells were mixed with 200 μl of 4 mol/l guanidinium isothiocyanate (Fischer Bioreagents) containing 25 mmol/l sodium citrate (MP Biomedicals, CA, USA), 0.5% sarkosyl (Fischer Bioreagents), 0.1 mol/l β-mercaptoethanol (MP Biomedicals), and 100 μl sodium acetate (Merck). The lysed cells were mixed with an equal volume of phenol, chloroform and isoamyl alcohol (25:24:1, pH 4; Fischer Bioreagents). After vortexing, the mixture was centrifuged (14,000 r.p.m. for 10 min) at 4°C. The aqueous layer was collected and mixed with an equal volume of isopropanol (Acros Organics, Geel, Belgium). After incubation at -20°C overnight, RNA was precipitated by centrifugation (14,000 r.p.m. for 30 min) at 4°C, and the precipitated RNA was washed twice with 70% ethanol. […]

| SMILES | Result (anti-HCV screening) | in vitro anti-HCV activity, in words (HCV-infected HepG2 cells, RT-PCR) |
| --- | --- | --- |
| CC(=NN=C1SC(=Cc2cn(-c3ccccc3)nc2-c2ccc(Cl)cc2)C(=O)N1c1ccc(Cl)cc1)c1nc2ccccc2[nH]1 [Compound 5q, 2-[1-(1H-Benzimidazole-2-yl)ethylidenehydrazono]-5-{[3-(4-chlorophenyl)-1-phenyl-1H-pyrazol-4-yl]methylene}-3-(4-chlorophenyl)thiazolidin-4-one] | Negative |  |
| CC(=NN=C1SC(=Cc2cn(-c3ccccc3)nc2-c2ccccc2)C(=O)N1c1ccccc1)c1cc2ccccc2o1 [Compound 5a, 2-[1-(Benzofuran-2-yl)ethylidenehydrazono]-5-[(1,3-Diphenyl-1H-pyrazol-4-yl)methylene]-3-phenylthiazolidin-4-one] | Positive | showed in vitro anti-HCV activity; also recorded: exhibited in vitro anti-HCV activity |
